From patent US20260176289A1, “SMALL MOLECULE INHIBITORS OF KRAS PROTEINS” (Merck Sharp & Dohme LLC, priority 2022, published 2026)

Tests used:
[1] = system: PANC08.13 cells; assay: Cellular phospho-ERK assay, PANC08.13 cells (homozygous KRAS-G12D); assay type: cell-based; conditions: Homo sapiens, PANC-08-13, KRAS-G12D, 2 hours, read-out: PANC-08.13 pERK IC50
How it was run: (§1)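 Readout: p-ERK/total ERK ratio measured by Alpha SureFire Ultra multiplex in lysates after 2 h compound exposure (37 °C, 5% CO2). Dosing ran 10 points, 1:3 dilutions, highest final concentration 30 μM. IC50 values derived by four-parameter logistic regression.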

[2] = target: NRAS (Homo sapiens, UniProt P01111); assay: SOS-catalyzed nucleotide exchange assay (Procedure A, TR-FRET), NRAS; assay type: biochemical; conditions: read-out: NRAS GNE IC50
Source text: Procedure for SOS-Catalyzed Nucleotide Exchange Assay for KRAS-WT, G12C/D/V, G13D, HRAS, and NRAS (Procedure A)
Recombinant KRAS-G12C protein used in this assay has an additional triple mutation (C51S/C80L/C118S). Whereas KRAS-WT, G12D/V, G13D, HRAS and NRAS are in context of their WT protein sequence background. Specifically, the SOS-catalyzed nucleotide exchange assay utilizes a preformed TR-FRET complex containing a specific biotinylated RAS protein (KRAS-WT, G12C/V/D, G13D, HRAS, NRAS; described above) with Bodipy-GDP, and Terbium-streptavidin. Compounds are preincubated with this complex for 60 minutes. Subsequently, recombinant human SOS protein and unlabeled GTP are added to initiate the exchange reaction. Small molecule inhibitors stabilize the Bodipy-GDP complex whereas the untreated protein rapidly exchanges Bodipy-GDP for unlabeled GTP resulting in reduced TR-FRET signal.
To assemble the preformed TR-FRET complexes, each biotinylated RAS protein is diluted to 2 μM in an EDTA Buffer (20 mM HEPES pH 7.5, 50 mM sodium chloride, 10 mM EDTA, and 0.01% Tween) and incubated at room temperature for one hour. This mixture is then further diluted to 90 nM in an Assay Buffer (20 mM HEPES pH 7.5, 150 mM sodium chloride, 10 mM magnesium chloride, and 0.005% Tween) containing 15 nM of Terbium-Streptavidin (Invitrogen, catalog #PV3577) and 900 nM of Bodipy-GDP (Invitrogen, catalog #G22360) and incubated at room temperature for six hours. It should be noted that this preformed TR-FRET complex for each of the RAS protein were made ahead of time, aliquoted and stored at −80° C. until the day of the experiment.
Each test compound (10 mM stock in DMSO) is diluted in DMSO to make a final-10-point, 3-fold dilution and is acoustically dispensed into a 384-well assay plate (Corning, catalog #3820) using an Echo 550 (Labcyte). Each well of the assay plate receives 3 μL of a specific 3×RAS preformed TR-FRET complex and 3 μL of Assay Buffer and is incubated at room temperature for 60 minutes (preincubation time). Each well then receives 3 μL of 3×recombinant human SOS protein and GTP (Sigma, G8877) in Assay Buffer and is incubated at room temperature for 30 minutes (G13D), 60 minutes (KRAS WT/G12C/D, H/NRAS) or 90 minutes for G12V. […]
The time-resolved fluorescence resonance energy transfer (TR-FRET) signal is measured on an Envision (PerkinElmer) plate reader: Excitation filter=340 nm; emission 1=495 nm; emission2=520 nm; dichroic mirror=D400/D505; delay time=[…]. The signal of each well is determined as the ratio of the emission at 520 nm to that at 495 nm. Percent effect of each well is determined after normalization to control wells containing DMSO (no effect) or a saturating concentration of inhibitor (max effect). […]

[3] = system: SW620 cells; assay: Cellular phospho-ERK assay, SW620 cells (homozygous KRAS-G12V); assay type: cell-based; conditions: Homo sapiens, SW-620, KRAS-G12V, 2 hours, read-out: SW620 pERK IC50
How it was run: as §1

NRAS, sequence (P01111 with tags, fused parts or gaps): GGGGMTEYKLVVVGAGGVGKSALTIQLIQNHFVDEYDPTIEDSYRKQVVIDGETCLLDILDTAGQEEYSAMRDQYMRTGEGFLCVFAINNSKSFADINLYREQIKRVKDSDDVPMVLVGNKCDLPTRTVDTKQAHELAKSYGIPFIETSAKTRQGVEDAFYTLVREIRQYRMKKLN

C#Cc1c(F)ccc2cc(O)cc(-c3nccc4c5c(N6CCOC[C@@](C)(O)C6)nc(OC[C@@]67CCCN6C[C@H](F)C7)nc5n(C)c34)c12 [Ex-18, (S)-4-(8-(8-ethynyl-7-fluoro-3-hydroxynaphthalen-1-yl)-2-(((2R,7aS)-2-fluorotetrahydro-1H-pyrrolizin-7a(5H)-yl)methoxy)-9-methyl-9H-pyrido[4′,3′:4,5]pyrrolo[2,3-d]pyrimidin-4-yl)-6-methyl-1,4-oxazepan-6-ol] was tested, and the IC50 [1] was 4.54 nM, the IC50 [2] was 8820 nM and the IC50 [3] was 13.1 nM.
